The test system of experiment [1] is male-specific coliphages (MS-2). Format: cell-based, coliphage MS-2.
Experiment [2] relates to Escherichia coli (ATCC #25922). Format: cell-based.
Experiment [3] has as its system estrogenic activity of 17-β-estradiol (E2); human estrogen receptor (ER) α. In words: Estrogenic activity, ZR-75 breast cancer cell ERE-Luc reporter assay. Format: cell-based. The note with it: E2 spiked.
Another experiment has as its system Salmonella Typhimurium. Format: cell-based.
Experiment [4] has as its system estrogenic activity of 17-β-estradiol (E2); human estrogen receptor. The experiment can be described thus: Estrogenic activity, YES assay (recombinant yeast). Format: cell-based, Saccharomyces cereviciae. Particulars: E2 spiked.
Another experiment has as its system spiked organisms. In words: Preliminary studies using PBS: ferrate with E-beam on spiked organisms. Format: cell-based. Particulars: ferrate 2 ppm or 4 ppm in combination with E-beam (6 kGy, 8 kGy and 12 kGy).
Experiment [5] has as its system aerobic spores (Bacillus subtilis). Format: cell-based.
The subject of another experiment is Poliovirus Type 1. Format: cell-based, Poliovirus-1.
The subject of experiment [6] is estrogenic activity of 17-β-estradiol (E2); human estrogen receptor. The note with it: it has been shown; cited from earlier work.
The mark [7] stands for this setting: Table 28, 50 ppm + E-Beam (8 kGy).
[8] abbreviates: Table 28, 100 ppm + E-Beam (8 kGy).
The mark [9] stands for this setting: Table 28, 200 ppm + E-Beam (8 kGy).
[10] abbreviates: Table 29, 50 ppm + E-Beam (8 kGy).
Where [11] appears, read: Table 29, 100 ppm + E-Beam (8 kGy).
Where [12] appears, read: Table 29, 200 ppm + E-Beam (8 kGy).

Bounds are passed on as bounds.

As for `[O]=[Fe](=[O])([O-])[O-]` [Ferrate, ferrate], the entries for the “inactivation (in words)” value (in [1]; with spiked organisms; in the experiment with Poliovirus Type 1) were “Complete inactivation”, “inactivated” and “complete elimination”, respectively. Besides, the “surviving bacterial colonies (detection limit)” value (in [2]; in the experiment on Salmonella Typhimurium) was less than 10 CFU/ml each time. Further, the “% Reduction in Estrogenic Activity, Liquid Portion (n = 3)” value in experiment [3] (Table 28 (aerobically digested biosolids, inferred b252), 50 ppm Ferrate) was determined as 84%; in [3] (setting [7]), 85%; in experiment [3] (setting [8]), 90%; in experiment [3] (Table 28, 100 ppm Ferrate) it was 88%; in experiment [3] (setting [9]) it was 81%; in experiment [3] (Table 28, 200 ppm Ferrate), 89%. The “% Reduction in Estrogenic Activity, Liquid Portion (n = 3)” value is reported as 68% in [3] (Table 29 (anaerobically digested biosolids, inferred b252), 50 ppm Ferrate); 71% in experiment [3] (setting [10]); 74% in [3] (setting [11]); 73% in experiment [3] (Table 29, 100 ppm Ferrate); 71% in experiment [3] (setting [12]); 72% in experiment [3] (Table 29, 200 ppm Ferrate). Further, the “log reduction (approximated)” value in the experiment on Salmonella Typhimurium is reported as “around three”. In addition, the “% Reduction in Estrogenic Activity, Solid Portion (n = 3)” value in experiment [4] (setting [7]) was 40%; in [4] (Table 28, 50 ppm Ferrate) it was 40%; in experiment [4] (setting [8]), 43%; in experiment [4] (Table 28, 100 ppm Ferrate) it was 27%; in experiment [4] (setting [9]), 51%; in experiment [4] (Table 28, 200 ppm Ferrate), 59%. In addition, the “% Reduction in Estrogenic Activity, Solid Portion (n = 3)” value in experiment [4] (setting [10]) was 29%; in experiment [4] (Table 29, 50 ppm Ferrate), 30%; in [4] (setting [11]), 20%; in experiment [4] (Table 29, 100 ppm Ferrate) it was 31%; in [4] (setting [12]) it was 30%; in [4] (Table 29, 200 ppm Ferrate), 29%. Further, the “log reduction of spore formers” value in [5] is listed as “two to three”. Besides, the “reduction of spore formers (in words)” value in experiment [5] was “slight reduction”.
As for `CC/C(=C(\c1ccc(O)cc1)c1ccc(OCCN(C)C)cc1)c1ccccc1` [hydroxytamoxifen], the “response in the YES assay (in words)” value in experiment [6] is on record as “partial agonistic (estrogenic) response”.

Source of the values: US20130032547A1, “STABILIZATION AND DISINFECTION OF WASTES USING HIGH ENERGY E-BEAM AND CHEMICAL OXIDANTS” (priority 2011, published 2013).
